For this experiment, the system named is HLA-A*02. The experiment in a line: MHC binding assay, UV-ligand exchange with β2m ELISA, HLA-A*02 (Table 20). Conditions: binding to HLA-A*02 ranged by peptide exchange yield (UV-ligand exchange, β2m ELISA). Also noted: species or system human. An excerpt:
Candidate peptides for T cell based therapies according to the present invention were further tested for their MHC binding capacity (affinity). The individual peptide-MHC complexes were produced by UV-ligand exchange, where a UV-sensitive peptide is cleaved upon UV-irradiation, and exchanged with the peptide of interest as analyzed. Only peptide candidates that can effectively bind and stabilize the peptide-receptive MHC molecules prevent dissociation of the MHC complexes. To determine the yield of the exchange reaction, an ELISA was performed based on the detection of the light chain ((β2m) of stabilized MHC complexes. The assay was performed as generally described in Rodenko et al. (Rodenko et al., 2006).
96 well MAXISorp plates (NUNC) were coated over night with 2 ug/ml streptavidin in PBS at room temperature, washed 4× and blocked for 1 h at 37° C. in 2% BSA containing blocking buffer. Refolded HLA-A*02:01/MLA-001 monomers served as standards, covering the range of 15-500 ng/ml. Peptide-MHC monomers of the UV-exchange reaction were diluted 100 fold in blocking buffer. Samples were incubated for 1 h at 37° C., washed four times, incubated with 2 ug/ml HRP conjugated anti-β2m for 1 h at 37° C., washed again and detected with TMB solution that is stopped with […]. Absorption was measured at 450 nm. Candidate peptides that show a high exchange yield (preferably higher than 50%, most preferred higher than 75%) are generally preferred for a generation and production of antibodies or fragments thereof, and/or T cell receptors or fragments thereof, as they show sufficient avidity to the MHC molecules and prevent dissociation of the MHC complexes.
Background: ELISA stands for enzyme-linked immunosorbent assay.

“94 (LLLPAVPVGA; listed as Homo sapiens) [compound 94]”: the Peptide exchange entry is on record as “+++ (50%-75% = +++)”.

Take “152 (MMVGDLLEV; listed as Homo sapiens) [compound 152]”: the Peptide exchange entry is “+++ (50%-75% = +++)”.

As for “108 (ILLKNLVTI; listed as Homo sapiens) [compound 108]”, the Peptide exchange result is on record as “++ (20%-49% = ++)”.

“100 (ALLGMIIVGV; listed as Homo sapiens) [compound 100]”: the Peptide exchange entry is listed as “+ (<20% = +)”.

As to “76 (AVGPVHNSV; listed as Homo sapiens) [compound 76]”, the Peptide exchange result is “++ (20%-49% = ++)”.

As for “109 (SLDPSVTHL; listed as Homo sapiens) [compound 109]”, the Peptide exchange result is on record as “++ (20%-49% = ++)”.

Regarding “153 (FISERVEVV; listed as Homo sapiens) [compound 153]”, the Peptide exchange result was “++++ (≧75% = ++++)”.

Consider “49 (ALNIATHVL; listed as Homo sapiens) [compound 49]”, for which the Peptide exchange result is on record as “+++ (50%-75% = +++)”.

“145 (YLWATIQRI; listed as Homo sapiens) [compound 145]”: the Peptide exchange entry is “+++ (50%-75% = +++)”.

In the case of “243 (FMADDIFSV; listed as Homo sapiens) [compound 243]”, the Peptide exchange entry was “+++ (50%-75% = +++)”.

On to “266 (YAIGLVMRL; listed as Homo sapiens) [compound 266]”, for which the Peptide exchange entry is recorded as “+++ (50%-75% = +++)”.

For “83 (GQASYFYVA; listed as Homo sapiens) [compound 83]”, the Peptide exchange entry is “++ (20%-49% = ++)”.

“122 (GVVDPVHGV; listed as Homo sapiens) [compound 122]”: the Peptide exchange result is “++ (20%-49% = ++)”.

Regarding “53 (KMVGLVVAI; listed as Homo sapiens) [compound 53]”, the Peptide exchange entry was “+++ (50%-75% = +++)”.

Take “95 (GLLGSLFFL; listed as Homo sapiens) [compound 95]”: the Peptide exchange entry is on record as “++++ (≧75% = ++++)”.

Consider “123 (VLDPALPALV; listed as Homo sapiens) [compound 123]”, for which the Peptide exchange result is “++ (20%-49% = ++)”.

Take “71 (VLHSKFWVV; listed as Homo sapiens) [compound 71]”: the Peptide exchange result is given as “+++ (50%-75% = +++)”.

As for “99 (YLLQSVNQLLL; listed as Homo sapiens) [compound 99]”, the Peptide exchange entry was “++ (20%-49% = ++)”.

As to “22 (FVDPNTQEKV; listed as Homo sapiens) [compound 22]”, the Peptide exchange entry was “++ (20%-49% = ++)”.

For the substance “89 (QLAPVFQRV; listed as Homo sapiens) [compound 89]”, the Peptide exchange result was “++ (20%-49% = ++)”.

On to “13 (ALMAMLVYV; listed as Homo sapiens) [compound 13]”, for which the Peptide exchange result is on record as “++ (20%-49% = ++)”.

In the case of “250 (SLAPATPEV; listed as Homo sapiens) [compound 250]”, the Peptide exchange result is recorded as “+++ (50%-75% = +++)”.

As to “62 (ALNPELVQA; listed as Homo sapiens) [compound 62]”, the Peptide exchange result was “++ (20%-49% = ++)”.

Regarding “154 (RLLGTEFQV; listed as Homo sapiens) [compound 154]”, the Peptide exchange entry is “+++ (50%-75% = +++)”.

As to “73 (YTLREVDTV; listed as Homo sapiens) [compound 73]”, the Peptide exchange result was “++ (20%-49% = ++)”.

As for “66 (KLIFSVEAV; listed as Homo sapiens) [compound 66]”, the Peptide exchange entry is recorded as “+++ (50%-75% = +++)”.

As for “130 (SLLGGTFVGI; listed as Homo sapiens) [compound 130]”, the Peptide exchange entry is recorded as “+++ (50%-75% = +++)”.

As for “30 (AMIEEVFEA; listed as Homo sapiens) [compound 30]”, the Peptide exchange entry was “++ (20%-49% = ++)”.

On to “113 (FLERGLESA; listed as Homo sapiens) [compound 113]”, for which the Peptide exchange result was “++ (20%-49% = ++)”.

Consider “79 (VTFKEYVTV; listed as Homo sapiens) [compound 79]”, for which the Peptide exchange result was “++ (20%-49% = ++)”.

“25 (TMDSVLVTV; listed as Homo sapiens) [compound 25]”: the Peptide exchange entry is “+++ (50%-75% = +++)”.

For the substance “103 (YLVSEIFKA; listed as Homo sapiens) [compound 103]”, the Peptide exchange result was “+++ (50%-75% = +++)”.

Consider “238 (GLYERPTAA; listed as Homo sapiens) [compound 238]”, for which the Peptide exchange entry is “++ (20%-49% = ++)”.

As to “117 (KMPDVELFV; listed as Homo sapiens) [compound 117]”, the Peptide exchange result is on record as “+++ (50%-75% = +++)”.

Regarding “64 (SLFPDSLIV; listed as Homo sapiens) [compound 64]”, the Peptide exchange result is “++ (20%-49% = ++)”.

As for “129 (RLQDILWFL; listed as Homo sapiens) [compound 129]”, the Peptide exchange entry is given as “++++ (≧75% = ++++)”.

Turning to “131 (VTSNSGILGV; listed as Homo sapiens) [compound 131]”, the Peptide exchange entry is recorded as “+++ (50%-75% = +++)”.

“61 (AIVKEIVNI; listed as Homo sapiens) [compound 61]”: the Peptide exchange entry was “++ (20%-49% = ++)”.

Take “82 (FIFDEAEKL; listed as Homo sapiens) [compound 82]”: the Peptide exchange entry is on record as “+ (<20% = +)”.

Consider “245 (SLLDLPLSL; listed as Homo sapiens) [compound 245]”, for which the Peptide exchange result is “++++ (≧75% = ++++)”.

As for “135 (HLSTIIHEA; listed as Homo sapiens) [compound 135]”, the Peptide exchange result is recorded as “+++ (50%-75% = +++)”.

Regarding “41 (ALFENTPKA; listed as Homo sapiens) [compound 41]”, the Peptide exchange entry is recorded as “++ (20%-49% = ++)”.

As to “120 (VTPVTVSAV; listed as Homo sapiens) [compound 120]”, the Peptide exchange result is reported as “+ (<20% = +)”.

Take “102 (VLLDIQEVFQI; listed as Homo sapiens) [compound 102]”: the Peptide exchange result is “+++ (50%-75% = +++)”.

In the case of “128 (TQSPATLSV; listed as Homo sapiens) [compound 128]”, the Peptide exchange result was “++ (20%-49% = ++)”.

Consider “256 (SLGEEQFSV; listed as Homo sapiens) [compound 256]”, for which the Peptide exchange entry is “++ (20%-49% = ++)”.

For the substance “86 (SVDSHFQEV; listed as Homo sapiens) [compound 86]”, the Peptide exchange entry is listed as “++ (20%-49% = ++)”.

With “37 (ILAPFSVDL; listed as Homo sapiens) [compound 37]”, the Peptide exchange entry was “+++ (50%-75% = +++)”.

Consider “263 (VLLSEQGDVKL; listed as Homo sapiens) [compound 263]”, for which the Peptide exchange entry is on record as “++ (20%-49% = ++)”.

As for “134 (GLAVPTPSV; listed as Homo sapiens) [compound 134]”, the Peptide exchange result is “+++ (50%-75% = +++)”.

With “110 (FLLGVSKEV; listed as Homo sapiens) [compound 110]”, the Peptide exchange entry was “+++ (50%-75% = +++)”.

With “60 (ALFAPLVHL; listed as Homo sapiens) [compound 60]”, the Peptide exchange entry is recorded as “+++ (50%-75% = +++)”.

On to “88 (AQADHLPQL; listed as Homo sapiens) [compound 88]”, for which the Peptide exchange entry is “++ (20%-49% = ++)”.

For “146 (ALHFSEDEI; listed as Homo sapiens) [compound 146]”, the Peptide exchange entry was “++ (20%-49% = ++)”.

As to “260 (ILLEKILSL; listed as Homo sapiens) [compound 260]”, the Peptide exchange entry is on record as “+++ (50%-75% = +++)”.

For the substance “254 (KLQGKLPEL; listed as Homo sapiens) [compound 254]”, the Peptide exchange entry is “++ (20%-49% = ++)”.

Turning to “237 (ALAPHLDDA; listed as Homo sapiens) [compound 237]”, the Peptide exchange entry is “+++ (50%-75% = +++)”.

For “258 (LLSERFINV; listed as Homo sapiens) [compound 258]”, the Peptide exchange result is listed as “++++ (≧75% = ++++)”.

“147 (YLMDDTVEI; listed as Homo sapiens) [compound 147]”: the Peptide exchange entry is listed as “++++ (≧75% = ++++)”.

For “77 (TLIDEQDIPLV; listed as Homo sapiens) [compound 77]”, the Peptide exchange entry is reported as “+++ (50%-75% = +++)”.

With “104 (ALISWQPPRA; listed as Homo sapiens) [compound 104]”, the Peptide exchange result is “+++ (50%-75% = +++)”.

As to “47 (ALLERGELFV; listed as Homo sapiens) [compound 47]”, the Peptide exchange result is recorded as “+++ (50%-75% = +++)”.

Take “234 (LLSPHNPAL; listed as Homo sapiens) [compound 234]”: the Peptide exchange result is listed as “+++ (50%-75% = +++)”.

As to “262 (FMVDKAIYL; listed as Homo sapiens) [compound 262]”, the Peptide exchange result is listed as “+++ (50%-75% = +++)”.

Take “9 (FLVDGSYSI; listed as Homo sapiens) [compound 9]”: the Peptide exchange result is on record as “+++ (50%-75% = +++)”.

As for “67 (TLLQRLTEV; listed as Homo sapiens) [compound 67]”, the Peptide exchange result is “+++ (50%-75% = +++)”.

(Values after US20170189504A1, “NOVEL PEPTIDES AND COMBINATION OF PEPTIDES FOR USE IN IMMUNOTHERAPY AGAINST VARIOUS CANCERS” (immatics biotechnologies GmbH, priority 2015, published 2017).)
